According to ChEMBL document CHEMBL4350983, “Combining structure- and property-based optimization to identify selective FLT3-ITD inhibitors with good antitumor efficacy in AML cell inoculated mouse xenograft model” (Eur J Med Chem, 2019):

Experiments:
[1] = rat, microsomes, 0.25 h, 1 µM
[2] = Mean residence time (0 to t) in Sprague-Dawley rat at 1 mg/kg, iv measured up to 24 hrs by LC-MS/MS analysis; assay type: ADME, organism-based; conditions: in vivo
[3] = Apparent volume of distribution in Sprague-Dawley rat at 5 mg/kg, po measured up to 24 hrs by LC-MS/MS analysis; assay type: ADME, organism-based; conditions: in vivo
[4] = Oral bioavailability in Sprague-Dawley rat at 5 mg/kg measured up to 24 hrs by LC-MS/MS analysis; assay type: ADME, organism-based; conditions: in vivo
in vitro [5] = conditions: rat, liver microsomes
[6] = human, microsomes, 0.25 h, 1 µM
[7] = AUCt in Sprague-Dawley rat at 1 mg/kg, iv measured up to 24 hrs by LC-MS/MS analysis; assay type: ADME, organism-based; set-up: dose 1 mg/kg, time < 24 hr, route intravenous; conditions: in vivo
[8] = Mean residence time (0 to t) in Sprague-Dawley rat at 5 mg/kg, po measured up to 24 hrs by LC-MS/MS analysis; assay type: ADME, organism-based; conditions: in vivo
[9] = Tmax in Sprague-Dawley rat at 5 mg/kg, po measured up to 24 hrs by LC-MS/MS analysis; assay type: ADME, organism-based; conditions: in vivo
[10] = Cmax in Sprague-Dawley rat at 5 mg/kg, po measured up to 24 hrs by LC-MS/MS analysis; assay type: ADME, organism-based; set-up: dose 5 mg/kg, route oral; conditions: in vivo
[11] = Apparent volume of distribution in Sprague-Dawley rat at 1 mg/kg, iv measured up to 24 hrs by LC-MS/MS analysis; assay type: ADME, organism-based; conditions: in vivo, read-out: Vz
[12] = AUCt in Sprague-Dawley rat at 5 mg/kg, po measured up to 24 hrs by LC-MS/MS analysis; assay type: ADME, organism-based; set-up: time < 24 hr, dose 5 mg/kg, route oral; conditions: in vivo
[13] = Half-life in Sprague-Dawley rat at 1 mg/kg, iv measured up to 24 hrs by LC-MS/MS analysis; assay type: ADME, organism-based; conditions: in vivo
[14] = Apparent clearance in Sprague-Dawley rat at 1 mg/kg, iv measured up to 24 hrs by LC-MS/MS analysis; assay type: ADME, organism-based; conditions: in vivo, read-out: CL(app) (converted)
[15] = AUC (0 to infinity) in Sprague-Dawley rat at 5 mg/kg, po measured up to 24 hrs by LC-MS/MS analysis; assay type: ADME, organism-based; set-up: dose 5 mg/kg, route oral, time infinity; conditions: in vivo
[16] = AUC (0 to infinity) in Sprague-Dawley rat at 1 mg/kg, iv measured up to 24 hrs by LC-MS/MS analysis; assay type: ADME, organism-based; set-up: dose 1 mg/kg, time infinity, route intravenous; conditions: in vivo
in vitro [17] = conditions: human, liver microsomes
[18] = Half-life in Sprague-Dawley rat at 5 mg/kg, po measured up to 24 hrs by LC-MS/MS analysis; assay type: ADME, organism-based; conditions: in vivo
[19] = Cmax in Sprague-Dawley rat at 1 mg/kg, iv measured up to 24 hrs by LC-MS/MS analysis; assay type: ADME, organism-based; set-up: dose 1 mg/kg, route intravenous; conditions: in vivo
[20] = Apparent clearance in Sprague-Dawley rat at 5 mg/kg, po measured up to 24 hrs by LC-MS/MS analysis; assay type: ADME, organism-based; conditions: in vivo, read-out: CL(app) (converted)

## CN1CCC(Nc2ccc(C(=O)Nc3cc(-c4ccc5c(c4)OCO5)n[nH]3)cc2)CC1
[1]
  CLH: 0.168 mL/min/kg
[2]
  MRT last at 24 h: 2.75 h
[3]
  Vz: 105.05 L/kg
[4]
  bioavailability: 22.8%
In vitro [5]
  half-life at 0.25 h, 1 µM: 8.27 min
[6]
  CLH: 0.0118 mL/min/kg
[7]
  AUC(0-t) at 24 h: 152 ng·h/mL
[8]
  MRT last at 24 h: 5.9 h
[9]
  Tmax: 2.83 h
[10]
  Cmax: 27 ng/mL
[11]
  Vd: 18.2 L/kg
[12]
  AUC(0-t) at 24 h: 173 ng·h/mL
[13]
  half-life: 1.96 h
[14]
  clearance: 110 mL/min/kg
[15]
  AUC(0-inf): 194 ng·h/mL
[16]
  AUC(0-inf): 161 ng·h/mL
In vitro [17]
  half-life at 0.25 h, 1 µM: 1.95 h
[18]
  half-life: 3.07 h
[19]
  Cmax: 205 ng/mL
[20]
  CL/F: 445 mL/min/kg
